Earlier results in US7456023B2, “Reagent for luminescence optical determination of an analyte” (Roche Diagnostics Operations, Inc., priority 2000, dated 2008).

Key:
[1] = for Absorption wavelength, deprotonated: deprotonated form; for Absorption wavelength, protonated: protonated form

Question: With `O=S1(=O)OC(c2cc(Br)c(O)c(Br)c2)(c2cc(Br)c(O)c(Br)c2)c2ccccc21` [Bromophenol blue] as the compound, how does the “Absorption wavelength, deprotonated” value [1] read?
Answer: 617 nm

Question: And the “Absorption wavelength, protonated” value [1]?
Answer: 430 nm

Question: Which results are given for `Cc1c(C2(c3cc(C(C)C)c(O)c(Br)c3C)OS(=O)(=O)c3ccccc32)cc(C(C)C)c(O)c1Br` [Bromothymol blue]?
Answer: Absorption wavelength, deprotonated [1]: 615-618 nm; Absorption wavelength, protonated [1]: 430-435 nm

Question: Which results are given for `Cc1ccc(O)c(N=Nc2c(O)cc(S(=O)(=O)O)c3ccccc23)c1` [Calmagit]?
Answer: Absorption wavelength, deprotonated [1]: 605 nm; Absorption wavelength, protonated [1]: 530 nm

Question: For `O=C1OC(c2ccc(O)c3ccccc23)(c2ccc(O)c3ccccc23)c2ccccc21` [Naphthol-phthalein], which “Absorption wavelength, deprotonated” value [1] is on record?
Answer: 661 nm

Question: What about the “Absorption wavelength, protonated” value [1] of the same compound?
Answer: 428 nm

Question: Which results are given for `O=C1C=CC(=Nc2ccc(O)cc2)C=C1Cl` [o-chlorophenol-indophenol]?
Answer: Absorption wavelength, deprotonated [1]: 625 nm; Absorption wavelength, protonated [1]: 555 nm

Question: Which “Absorption wavelength, deprotonated” value [1] does the source give for Dibromoxylenol blue here?
Answer: 614 nm

Question: And the “Absorption wavelength, protonated” value [1]?
Answer: 420 nm

Question: With Nitrazine yellow as the compound, how does the pKa read?
Answer: 6.5

Question: And the “Absorption wavelength, deprotonated” value [1]?
Answer: 590 nm

Question: What about the “Absorption wavelength, protonated” value [1] of the same compound?
Answer: 460 nm
